Source: ChEMBL document CHEMBL3870329, “Synthesis of peptide nucleic acids (PNA) with a crosslinking agent to RNA and effective inhibition of dicer” (Bioorg Med Chem Lett, 2016)
Active and inactive are the calls of the source. No cut-off for these calls is given here.

What was measured:
[1] = system: Nucleic Acid; experiment: Binding affinity to 5'-end FAM-tagged GACGCAATCCCAATCTGGTT DNA (unknown origin) assessed as induction of crosslinking by measuring heteroduplex formation at 4 uM measured after 24 hrs by bromophenol blue staining-based denaturing PAGE analysis relative to control; type: nucleic-acid assay
[2] = system: Nucleic Acid; experiment: Binding affinity to 5'-end FAM-tagged GACUCAAUCCCAAUCUGGUU RNA (unknown origin) assessed as induction of crosslinking by measuring heteroduplex formation at 4 uM measured after 24 hrs by bromophenol blue staining-based denaturing PAGE analysis relative to control; type: nucleic-acid assay
[3] = system: Nucleic Acid; experiment: Binding affinity to 5'-end FAM-tagged GACACAATCCCAATCTGGTT DNA (unknown origin) assessed as induction of crosslinking by measuring heteroduplex formation at 4 uM measured after 24 hrs by bromophenol blue staining-based denaturing PAGE analysis relative to control; type: nucleic-acid assay
[4] = system: Nucleic Acid; experiment: Binding affinity to 5'-end FAM-tagged GACTCAATCCCAATCTGGTT DNA (unknown origin) assessed as induction of crosslinking by measuring heteroduplex formation at 4 uM measured after 24 hrs by bromophenol blue staining-based denaturing PAGE analysis relative to control; type: nucleic-acid assay
[5] = system: Nucleic Acid; experiment: Binding affinity to 5'-end FAM-tagged GACACAAUCCCAAUCUGGUU RNA (unknown origin) assessed as induction of crosslinking by measuring heteroduplex formation at 4 uM measured after 24 hrs by bromophenol blue staining-based denaturing PAGE analysis relative to control; type: nucleic-acid assay
[6] = system: Nucleic Acid; experiment: Binding affinity to 5'-end FAM-tagged GACCCAAUCCCAAUCUGGUU RNA (unknown origin) assessed as induction of crosslinking by measuring heteroduplex formation at 4 uM measured after 24 hrs by bromophenol blue staining-based denaturing PAGE analysis relative to control; type: nucleic-acid assay
[7] = system: unidentified; experiment: Binding affinity to 5'-end FAM-tagged GACUCAAUCCCAAUCUGGUU RNA (unknown origin) assessed as melting temperature at 1.5 uM measured after 5 mins by UV spectrophotometry (reference value: 82.2 degC)
[8] = system: Nucleic Acid; experiment: Binding affinity to 5'-end FAM-tagged GACCCAATCCCAATCTGGTT DNA (unknown origin) assessed as induction of crosslinking by measuring heteroduplex formation at 4 uM measured after 24 hrs by bromophenol blue staining-based denaturing PAGE analysis relative to control; type: nucleic-acid assay
[9] = system: unidentified; experiment: Binding affinity to 5'-end FAM-tagged GACTCAATCCCAATCTGGTT DNA (unknown origin) assessed as melting temperature at 1.5 uM measured after 5 mins by UV spectrophotometry (reference value: 79.2 degC)
[10] = system: Nucleic Acid; experiment: Binding affinity to 5'-end FAM-tagged GACGCAAUCCCAAUCUGGUU RNA (unknown origin) assessed as induction of crosslinking by measuring heteroduplex formation at 4 uM measured after 24 hrs by bromophenol blue staining-based denaturing PAGE analysis relative to control; type: nucleic-acid assay
[11] = Binding affinity to 5'-end FAM-tagged GACTCAATCCCAATCTGGTT DNA (unknown origin) assessed as crosslinked adduct formation by MALDI-TOF MS analysis
[12] = system: Nucleic Acid; experiment: Binding affinity to synthetic 5'-FAM-labelled pre-miR-122 RNA site2 (unknown origin) assessed as inhibition of human dicer-mediated digestion of pre-miR-122 RNA preincubated with RNA for 2 days followed by dicer addition measured after 2 hrs by denaturing PAGE analysis relative to control; type: nucleic-acid assay; conditions: concentration not given here
[13] = system: Nucleic Acid; experiment: Binding affinity to synthetic 5'-FAM-labelled pre-miR-122 RNA site2 (unknown origin) assessed as heteroduplex formation at 4 uM measured after 2 hrs by denaturing PAGE analysis relative to control; type: nucleic-acid assay
[14] = system: Nucleic Acid; experiment: Binding affinity to synthetic 5'-fluorescein-labelled pre-miR-122 RNA site2 (unknown origin) assessed as heteroduplex formation at 4 uM measured after 48 hrs by non-denaturing PAGE analysis relative to control; type: nucleic-acid assay
[15] = system: Nucleic Acid; experiment: Binding affinity to synthetic 5'-FAM-labelled pre-miR-122 RNA site2 (unknown origin) assessed as human dicer-mediated digestion of pre-miR-122 RNA preincubated with RNA for 2 days followed by dicer addition measured after 2 hrs by denaturing PAGE analysis; type: nucleic-acid assay
[16] = system: Nucleic Acid; experiment: Binding affinity to synthetic 5'-fluorescein-labelled pre-miR-122 RNA site3 (unknown origin) assessed as heteroduplex formation at 4 uM measured after 48 hrs by non-denaturing PAGE analysis relative to control; type: nucleic-acid assay
[17] = system: Nucleic Acid; experiment: Binding affinity to synthetic 5'-FAM-labelled pre-miR-122 RNA site3 (unknown origin) assessed as heteroduplex formation at 4 uM measured after 2 hrs by denaturing PAGE analysis relative to control; type: nucleic-acid assay
[18] = system: Nucleic Acid; experiment: Binding affinity to synthetic 5'-FAM-labelled pre-miR-122 RNA site3 (unknown origin) assessed as inhibition of human dicer-mediated digestion of pre-miR-122 RNA by measuring heteroduplex formation preincubated with RNA for 2 days followed by dicer addition measured after 2 hrs by denaturing PAGE analysis relative to control; type: nucleic-acid assay; conditions: concentration not given here
[19] = system: Nucleic Acid; experiment: Binding affinity to synthetic 5'-FAM-labelled pre-miR-122 RNA site3 (unknown origin) assessed as human dicer-mediated digestion of pre-miR-122 RNA preincubated with RNA for 2 days followed by dicer addition measured after 2 hrs by denaturing PAGE analysis; type: nucleic-acid assay
[20] = system: Nucleic Acid; experiment: Binding affinity to synthetic 5'-FAM-labelled pre-miR-122 RNA site1 (unknown origin) assessed as human dicer-mediated digestion of pre-miR-122 RNA preincubated with RNA for 2 days followed by dicer addition measured after 2 hrs by denaturing PAGE analysis; type: nucleic-acid assay
[21] = system: Nucleic Acid; experiment: Binding affinity to synthetic 5'-FAM-labelled pre-miR-122 RNA site1 (unknown origin) assessed as inhibition of human dicer-mediated digestion of pre-miR-122 RNA preincubated with RNA for 2 days followed by dicer addition measured after 2 hrs by denaturing PAGE analysis relative to control; type: nucleic-acid assay; conditions: concentration not given here
[22] = system: Nucleic Acid; experiment: Binding affinity to synthetic 5'-fluorescein-labelled pre-miR-122 RNA site1 (unknown origin) assessed as heteroduplex formation at 4 uM measured after 48 hrs by non-denaturing PAGE analysis relative to control; type: nucleic-acid assay
[23] = system: Nucleic Acid; experiment: Binding affinity to synthetic 5'-FAM-labelled pre-miR-122 RNA site1 (unknown origin) assessed as heteroduplex formation at 4 uM measured after 2 hrs by denaturing PAGE analysis relative to control; type: nucleic-acid assay
[24] = Binding affinity to 5'-end FAM-tagged GACCAACCCCAAUCUGGUU RNA (unknown origin) assessed as change in melting temperature at 1.5 uM measured after 5 mins by UV spectrophotometry
[25] = Binding affinity to 5'-end FAM-tagged GACCAAGCCCAAUCUGGUU RNA (unknown origin) assessed as change in melting temperature at 1.5 uM measured after 5 mins by UV spectrophotometry
[26] = Binding affinity to 5'-end FAM-tagged GACCAATCCCAATCTGGTT DNA (unknown origin) assessed as change in melting temperature at 1.5 uM measured after 5 mins by UV spectrophotometry
[27] = Binding affinity to 5'-end FAM-tagged GACCAAACCCAAUCUGGUU RNA (unknown origin) assessed as change in melting temperature at 1.5 uM measured after 5 mins by UV spectrophotometry
[28] = Binding affinity to 5'-end FAM-tagged GACCAAGCCCAATCTGGTT DNA (unknown origin) assessed as change in melting temperature at 1.5 uM measured after 5 mins by UV spectrophotometry
[29] = Binding affinity to 5'-end FAM-tagged GACCAAACCCAATCTGGTT DNA (unknown origin) assessed as change in melting temperature at 1.5 uM measured after 5 mins by UV spectrophotometry
[30] = Binding affinity to 5'-end FAM-tagged GACCAACCCCAATCTGGTT DNA (unknown origin) assessed as change in melting temperature at 1.5 uM measured after 5 mins by UV spectrophotometry
[31] = Binding affinity to 5'-end FAM-tagged GACCAAUCCCAAUCUGGUU RNA (unknown origin) assessed as change in melting temperature at 1.5 uM measured after 5 mins by UV spectrophotometry

C=Cc1nc(N)nc2c1ncn2CC(=O)N(CCNC(C)=O)CC(=O)NCCN(CC(=O)NCCN(CC(=O)NCCN(CC(=O)NCCN(CC(=O)NCCN(CC(=O)NCCN(CC(=O)NCCN(CC(=O)NCCN(CC(=O)NCCN(CC(=O)NCCN(CC(=O)NCCN(CC(=O)N[C@@H](CCCNC(=N)N)C(=O)N[C@@H](CCCNC(=N)N)C(=O)NCC(N)=O)C(=O)Cn1cnc2c(=O)[nH]c(N)nc21)C(=O)Cn1cnc2c(N)ncnc21)C(=O)Cn1cc(C)c(=O)[nH]c1=O)C(=O)Cn1cc(C)c(=O)[nH]c1=O)C(=O)Cn1cnc2c(=O)[nH]c(N)nc21)C(=O)Cn1cnc2c(=O)[nH]c(N)nc21)C(=O)Cn1cnc2c(=O)[nH]c(N)nc21)C(=O)Cn1cnc2c(N)ncnc21)C(=O)Cn1cc(C)c(=O)[nH]c1=O)C(=O)Cn1cc(C)c(=O)[nH]c1=O)C(=O)Cn1cnc2c(=O)[nH]c(N)nc21
Activity [1]: 3% | Activity [2]: 62% | Activity [3]: 1% | Activity [4]: 52% | Activity [5]: 0% | Activity [6]: 2% | Tm [7]: 84.5 °C | Activity [8]: 2% | Tm [9]: 80.3 °C | Activity [10]: 2% | Activity [11]: Active

C=Cc1nc(N)nc2c1ncn2CC(=O)N(CCN)CC(=O)NCCN(CC(=O)NCCN(CC(=O)NCCN(CC(=O)NCCN(CC(=O)NCCN(CC(=O)NCCN(CC(=O)NCCN(CC(=O)NCCN(CC(=O)NCCN(CC(=O)NCCN(CC(=O)NCCN(CC(=O)NCCN(CC(=O)N[C@@H](CCCNC(=N)N)C(=O)O)C(=O)Cn1ccc(N)nc1=O)C(=O)Cn1ccc(N)nc1=O)C(=O)Cn1cc(C)c(=O)[nH]c1=O)C(=O)Cn1ccc(N)nc1=O)C(=O)Cn1cnc2c(N)ncnc21)C(=O)Cn1ccc(N)nc1=O)C(=O)Cn1cnc2c(N)ncnc21)C(=O)Cn1ccc(N)nc1=O)C(=O)Cn1cc(C)c(=O)[nH]c1=O)C(=O)Cn1cnc2c(=O)[nH]c(N)nc21)C(=O)Cn1cc(C)c(=O)[nH]c1=O)C(=O)Cn1cc(C)c(=O)[nH]c1=O
inhibition [12]: 41% | Activity [13]: 15% | Activity [14]: 41% | Activity [15]: 59%

C=Cc1nc(N)nc2c1ncn2CC(=O)N(CCN)CC(=O)NCCN(CC(=O)NCCN(CC(=O)NCCN(CC(=O)NCCN(CC(=O)NCCN(CC(=O)NCCN(CC(=O)NCCN(CC(=O)NCCN(CC(=O)NCCN(CC(=O)NCCN(CC(=O)NCCN(CC(=O)NCCN(CC(=O)N[C@@H](CCCNC(=N)N)C(=O)O)C(=O)Cn1ccc(N)nc1=O)C(=O)Cn1cnc2c(N)ncnc21)C(=O)Cn1ccc(N)nc1=O)C(=O)Cn1cnc2c(N)ncnc21)C(=O)Cn1cnc2c(=O)[nH]c(N)nc21)C(=O)Cn1cnc2c(N)ncnc21)C(=O)Cn1cc(C)c(=O)[nH]c1=O)C(=O)Cn1cc(C)c(=O)[nH]c1=O)C(=O)Cn1cc(C)c(=O)[nH]c1=O)C(=O)Cn1cnc2c(=O)[nH]c(N)nc21)C(=O)Cn1cnc2c(N)ncnc21)C(=O)Cn1cc(C)c(=O)[nH]c1=O
Activity [16]: 85% | Activity [17]: 72% | inhibition [18]: 76% | Activity [19]: 24%

C=Cc1nc(N)nc2c1ncn2CC(=O)N(CCN)CC(=O)NCCN(CC(=O)NCCN(CC(=O)NCCN(CC(=O)NCCN(CC(=O)NCCN(CC(=O)NCCN(CC(=O)NCCN(CC(=O)NCCN(CC(=O)NCCN(CC(=O)NCCN(CC(=O)NCCN(CC(=O)NCCN(CC(=O)N[C@@H](CCCNC(=N)N)C(=O)O)C(=O)Cn1cnc2c(N)ncnc21)C(=O)Cn1cc(C)c(=O)[nH]c1=O)C(=O)Cn1cnc2c(N)ncnc21)C(=O)Cn1cnc2c(=O)[nH]c(N)nc21)C(=O)Cn1cc(C)c(=O)[nH]c1=O)C(=O)Cn1cc(C)c(=O)[nH]c1=O)C(=O)Cn1cc(C)c(=O)[nH]c1=O)C(=O)Cn1cnc2c(=O)[nH]c(N)nc21)C(=O)Cn1ccc(N)nc1=O)C(=O)Cn1cnc2c(=O)[nH]c(N)nc21)C(=O)Cn1cnc2c(=O)[nH]c(N)nc21)C(=O)Cn1cc(C)c(=O)[nH]c1=O
Activity [20]: 90% | inhibition [21]: 10% | Activity [22]: 10% | Activity [23]: 8%

CSCCc1nc(N)nc2c1ncn2CC(=O)N(CCNC(=O)CN(CCNC(=O)CN(CCNC(=O)CN(CCNC(C)=O)C(=O)Cn1cnc2c(=O)[nH]c(N)nc21)C(=O)Cn1cc(C)c(=O)[nH]c1=O)C(=O)Cn1cc(C)c(=O)[nH]c1=O)CC(=O)NCCN(CC(=O)NCCN(CC(=O)NCCN(CC(=O)NCCN(CC(=O)NCCN(CC(=O)NCCN(CC(=O)NCCN(CC(=O)N[C@@H](CCCNC(=N)N)C(=O)N[C@@H](CCCNC(=N)N)C(=O)NCC(N)=O)C(=O)Cn1cnc2c(=O)[nH]c(N)nc21)C(=O)Cn1cnc2c(N)ncnc21)C(=O)Cn1cc(C)c(=O)[nH]c1=O)C(=O)Cn1cc(C)c(=O)[nH]c1=O)C(=O)Cn1cnc2c(=O)[nH]c(N)nc21)C(=O)Cn1cnc2c(=O)[nH]c(N)nc21)C(=O)Cn1cnc2c(=O)[nH]c(N)nc21
ΔTm [24]: -6.1 °C | ΔTm [25]: -11 °C | ΔTm [26]: -9.9 °C | ΔTm [27]: -10.1 °C | ΔTm [28]: -11 °C | ΔTm [29]: -10.6 °C | ΔTm [30]: -10.3 °C | ΔTm [31]: -5.9 °C
